Results reported in the CheMixHub viscosity set.
Values joined by “and” are separate entries in the source; they are usually repeats but may differ in a detail not shown here. Equal entries are not always repeated.

Experiments:
[1] = xn = mol fraction of the nth substance listed

COc1ccccc1
Conditions | viscosity
293.15 K, 101.33 kPa | 1.05 mPa·s and 1.143 mPa·s
298.15 K, 101 kPa | 0.9912 mPa·s and 1 mPa·s and 0.9785 mPa·s
298.15 K, 101.3 kPa | 0.99 mPa·s and 0.991 mPa·s
303 K, 100 kPa | 0.9804 mPa·s
303 K, 101 kPa | 0.9804 mPa·s
303 K, 101.3 kPa | 0.981 mPa·s
303.15 K, 100 kPa | 0.923 mPa·s
303.15 K, 101.3 kPa | 0.916 mPa·s and 0.915 mPa·s and 0.923 mPa·s
308.15 K, 101 kPa | 0.856 mPa·s and 0.856 mPa·s and 0.8422 mPa·s
313 K, 100 kPa | 0.7623 mPa·s
313 K, 101 kPa | 0.7623 mPa·s
313.15 K, 100 kPa | 0.764 mPa·s
318.15 K, 101 kPa | 0.745 mPa·s and 0.745 mPa·s
318.15 K, 101.33 kPa | 0.739 mPa·s
323 K, 100 kPa | 0.6146 mPa·s
323 K, 101 kPa | 0.6146 mPa·s
323.15 K, 101 kPa | 0.692 mPa·s and 0.692 mPa·s and 0.72 mPa·s
323.15 K, 101.33 kPa | 0.691 mPa·s and 0.691 mPa·s and 0.69 mPa·s

C[N+](C)(C)CCO.O=S(=O)([N-]S(=O)(=O)C(F)(F)F)C(F)(F)F
101 kPa
Conditions | viscosity [mPa·s]
298.15 K | 144.8
313.15 K | 56.44
318.15 K | 46.77
323.15 K | 39.28

CCOCCn1cc[n+](C)c1.C[C@@H](O)[C@H](N)C(=O)[O-]
100 kPa
Conditions | viscosity [mPa·s]
298.15 K | 1133
303.15 K | 730.3
308.15 K | 438.8
313.15 K | 312.5
318.15 K | 206.8
323.15 K | 153.8

CCOCCn1cc[n+](CCC#N)c1.O=S(=O)([N-]S(=O)(=O)C(F)(F)F)C(F)(F)F
101.33 kPa
Conditions | viscosity [mPa·s]
293.15 K | 401.1
303.15 K | 235.6
313.15 K | 146.2
323.15 K | 105

O=C(O)CBr
Conditions | viscosity [mPa·s]
323.15 K, 101 kPa | 3.65

CC(C)CC(=O)O
101.33 kPa
Conditions | viscosity [mPa·s]
293.15 K | 2.411
313.15 K | 1.672

CC(=O)C(=O)[O-].[Na+] + O
viscosity [mPa·s], [1], 101 kPa
Conditions | x1 = 0.00036 | x1 = 0.000648 | x1 = 0.000936 | x1 = 0.00137 | x1 = 0.00151 | x1 = 0.0018
298.15 K | 0.8972 | 0.9038 | 0.9104 | 0.9173 | 0.9206 | 0.9267
303.15 K | 0.8044 | 0.811 | 0.8176 | 0.826 | 0.8308 | 0.8369
308.15 K | 0.7257 | 0.7308 | 0.7375 | 0.7474 | 0.7507 | 0.7569
313.15 K | 0.6602 | 0.6669 | 0.6735 | 0.682 | 0.6868 | 0.6931

CC(C)=O + CN(C)C=O
[1], 298.15 K, 101 kPa
Conditions | viscosity [mPa·s]
x2 = 0.0367 | 0.32
x2 = 0.09776 | 0.343
x2 = 0.136 | 0.369
x2 = 0.2182 | 0.378
x2 = 0.394 | 0.457
x2 = 0.4912 | 0.499
x2 = 0.6429 | 0.565
x2 = 0.8008 | 0.646

CCCC[P+](CCCC)(CCCC)CCCC.CS(=O)(=O)[O-] + O=S1(=O)CCCC1
Conditions | viscosity [mPa·s]
[1], 313.15 K, 101.33 kPa, x1 = 0.5 | 84.22

CC1COC(=O)O1 (configuration not stated) + Cc1ccc(C)cc1
viscosity [mPa·s], [1], 101 kPa
Conditions | 298.15 K | 308.15 K
x1 = 0.0227 | 0.6155 | 0.5443
x1 = 0.0397 | 0.6246 | 0.5534
x1 = 0.0573 | 0.6333 | 0.5634
x1 = 0.0816 | – | 0.5779
x1 = 0.098 | 0.6527 | 0.5884
x1 = 0.209 | 0.728 | 0.6727
x1 = 0.3029 | 0.8062 | 0.7639
x1 = 0.3993 | 0.9317 | 0.8783
x1 = 0.5028 | 1.116 | 1.026
x1 = 0.5978 | 1.316 | 1.184
x1 = 0.7068 | 1.584 | 1.394
x1 = 0.8012 | 1.856 | 1.599
x1 = 0.8996 | 2.149 | 1.835

CC[N+](CC)(CC)CC.Cc1ccc(S(=O)(=O)[O-])cc1 + OCCOCCOCCOCCO
[1], 101 kPa, x1 = 0.2
Conditions | viscosity [mPa·s]
298.15 K | 74.7
303.15 K | 57.8
308.15 K | 45.9
313.15 K | 36.9
318.15 K | 30.2
323.15 K | 25

C1CCOC1 + CCO
Conditions | viscosity [mPa·s]
[1], 298.15 K, 101 kPa, x1 = 0.4 | 0.6728

COc1ccccc1 + CCOC(=O)OCC
viscosity [mPa·s], [1], 100 kPa
Conditions | x2 = 0.1064 | x2 = 0.203 | x2 = 0.3032 | x2 = 0.3994 | x2 = 0.499 | x2 = 0.6007 | x2 = 0.7032 | x2 = 0.7988 | x2 = 0.8975
303.15 K | 0.894 | 0.867 | 0.84 | 0.817 | 0.793 | 0.771 | 0.75 | 0.731 | 0.714
308.15 K | 0.824 | 0.801 | 0.778 | 0.759 | 0.738 | 0.719 | 0.702 | 0.687 | 0.673
313.15 K | 0.767 | 0.748 | 0.729 | 0.711 | 0.694 | 0.677 | 0.662 | 0.649 | 0.636
